Source: ChEMBL document CHEMBL3885861, “Open TG-GATES”

Species: Rattus norvegicus
Assay: Open TG-GATES - Regimen: Daily Repeat
Format: toxicity, organism-based, Sprague-Dawley
Parameters: regimen Daily Repeat, gender Male, age 6 weeks
Settings: in vivo, po, route gavage; for APTT / Bas / Eos / Fbg / Hb / Ht / Lym / MCH / MCHC / MCV / Mono / Neu / PT / Plat / RBC / Ret / WBC: tissue Blood; for KIDNEY_L / KIDNEY_R / KIDNEY_TOTAL: tissue Kidney; for LIVER: tissue Liver; for A/G / ALP / ALT / AST / BUN / CRE / Ca / Cl / DBIL / GLC / IP / K / LDH / Na / PL / RALB / TBIL / TC / TG / TP / gamma-GTP: tissue Plasma
[1] = 30 mg/kg, 72 h, dose level Middle, time 3 day
[2] = 30 mg/kg, […], dose level Middle, time 7 day
[3] = 30 mg/kg, […], dose level Middle, time 14 day
[4] = 30 mg/kg, […], dose level Middle, time 28 day
[5] = 100 mg/kg, 72 h, dose level High, time 3 day
[6] = 100 mg/kg, […], dose level High, time 7 day
[7] = 100 mg/kg, […], dose level High, time 14 day
[8] = 100 mg/kg, […], dose level High, time 28 day

## OCCOCCN1CCN(C(c2ccccc2)c2ccc(Cl)cc2)CC1 (centres undefined) [HYDROXYZINE]
[1]
  TERMINAL_BW: 226.2 g
  APTT: 15.8 s
  Bas: 0%
  Eos: 1%
  Fbg: 261.2 mg/dL
  Hb: 13.3 g/dL
  Ht: 40%
  Lym: 77.6%
  MCH: 21.9 pg
  MCHC: 33.3%
  MCV: 65.7 fL
  Mono: 3%
  Neu: 17.8%
  PT: 15.3 s
  Plat: 120.2 x10_4/uL
  RBC: 609.6 x10_4/ul
  Ret: 6.9%
  WBC: 89.6 x10_2/uL
  KIDNEY_L: 1 g
  KIDNEY_R: 1 g
  KIDNEY_TOTAL: 2 g
  LIVER: 10.9 g
  A/G: 0.9
  ALP: 1463.8 IU/L
  ALT: 40.4 IU/L
  AST: 66.6 IU/L
  BUN: 16.8 mg/dL
  CRE: 0.2 mg/dL
  Ca: 11.1 mg/dL
  Cl: 104.8 meq/L
  DBIL: 0.012 mg/dL
  GLC: 186 mg/dL
  IP: 7.9 mg/dL
  K: 4 meq/L
  LDH: 72.6 IU/L
  Na: 143.6 meq/L
  PL: 158.6 mg/dL
  RALB: 2.6 g/dL
  TBIL: 0.05 mg/dL
  TC: 83 mg/dL
  TG: 100.8 mg/dL
  TP: 5.6 g/dL
  gamma-GTP: 0.8 IU/L
[2]
  TERMINAL_BW: 271.6 g
  APTT: 17 s
  Bas: 0.2%
  Eos: 0.6%
  Fbg: 265.6 mg/dL
  Hb: 13.6 g/dL
  Ht: 40.6%
  Lym: 81.8%
  MCH: 21.5 pg
  MCHC: 33.6%
  MCV: 63.9 fL
  Mono: 2.2%
  Neu: 14.4%
  PT: 15.6 s
  Plat: 107.6 x10_4/uL
  RBC: 636 x10_4/ul
  Ret: 6.5%
  WBC: 91.6 x10_2/uL
  KIDNEY_L: 1.1 g
  KIDNEY_R: 1.1 g
  KIDNEY_TOTAL: 2.3 g
  LIVER: 14 g
  A/G: 0.8
  ALP: 1827.8 IU/L
  ALT: 37.6 IU/L
  AST: 64.2 IU/L
  BUN: 18 mg/dL
  CRE: 0.2 mg/dL
  Ca: 11 mg/dL
  Cl: 104.8 meq/L
  DBIL: 0.018 mg/dL
  GLC: 192.8 mg/dL
  IP: 7.8 mg/dL
  K: 4.3 meq/L
  LDH: 58.4 IU/L
  Na: 142 meq/L
  PL: 158 mg/dL
  RALB: 2.7 g/dL
  TBIL: 0.05 mg/dL
  TC: 78 mg/dL
  TG: 120.8 mg/dL
  TP: 5.9 g/dL
  gamma-GTP: 0.6 IU/L
[3]
  TERMINAL_BW: 331.8 g
  APTT: 16.5 s
  Bas: 0%
  Eos: 0.8%
  Fbg: 262.8 mg/dL
  Hb: 14.2 g/dL
  Ht: 41.5%
  Lym: 81.4%
  MCH: 20.7 pg
  MCHC: 34.2%
  MCV: 60.7 fL
  Mono: 3%
  Neu: 14.2%
  PT: 15.6 s
  Plat: 116.6 x10_4/uL
  RBC: 683.8 x10_4/ul
  Ret: 4.5%
  WBC: 103.2 x10_2/uL
  KIDNEY_L: 1.3 g
  KIDNEY_R: 1.3 g
  KIDNEY_TOTAL: 2.7 g
  LIVER: 16.6 g
  A/G: 0.8
  ALP: 1412.8 IU/L
  ALT: 37.6 IU/L
  AST: 63.6 IU/L
  BUN: 17.4 mg/dL
  CRE: 0.2 mg/dL
  Ca: 10.7 mg/dL
  Cl: 103.4 meq/L
  DBIL: 0.02 mg/dL
  GLC: 192.4 mg/dL
  IP: 7.6 mg/dL
  K: 4.1 meq/L
  LDH: 82.6 IU/L
  Na: 141.6 meq/L
  PL: 163 mg/dL
  RALB: 2.7 g/dL
  TBIL: 0.05 mg/dL
  TC: 81.8 mg/dL
  TG: 142 mg/dL
  TP: 6 g/dL
  gamma-GTP: 0.6 IU/L
[4]
  TERMINAL_BW: 390.1 g
  APTT: 17.6 s
  Bas: 0.4%
  Eos: 1.6%
  Fbg: 274.4 mg/dL
  Hb: 15.8 g/dL
  Ht: 45.6%
  Lym: 80.6%
  MCH: 19.9 pg
  MCHC: 34.5%
  MCV: 57.5 fL
  Mono: 2%
  Neu: 14.8%
  PT: 15.9 s
  Plat: 91.9 x10_4/uL
  RBC: 792.8 x10_4/ul
  Ret: 2.3%
  WBC: 101.1 x10_2/uL
  KIDNEY_L: 1.5 g
  KIDNEY_R: 1.4 g
  KIDNEY_TOTAL: 2.9 g
  LIVER: 16.7 g
  A/G: 0.8
  ALP: 1021.6 IU/L
  ALT: 37.2 IU/L
  AST: 59.4 IU/L
  BUN: 17.8 mg/dL
  CRE: 0.2 mg/dL
  Ca: 10.6 mg/dL
  Cl: 105 meq/L
  DBIL: 0.014 mg/dL
  GLC: 191.2 mg/dL
  IP: 6.7 mg/dL
  K: 4 meq/L
  LDH: 52 IU/L
  Na: 142.8 meq/L
  PL: 156.6 mg/dL
  RALB: 2.8 g/dL
  TBIL: 0.046 mg/dL
  TC: 77.4 mg/dL
  TG: 123 mg/dL
  TP: 6.2 g/dL
  gamma-GTP: 0.6 IU/L
[5]
  TERMINAL_BW: 215.1 g
  APTT: 17.1 s
  Bas: 0%
  Eos: 0.8%
  Fbg: 297 mg/dL
  Hb: 13.6 g/dL
  Ht: 40.5%
  Lym: 73.4%
  MCH: 20.9 pg
  MCHC: 33.5%
  MCV: 62.5 fL
  Mono: 3.2%
  Neu: 21.8%
  PT: 15.7 s
  Plat: 128.8 x10_4/uL
  RBC: 648.2 x10_4/ul
  Ret: 5.3%
  WBC: 97.2 x10_2/uL
  KIDNEY_L: 1 g
  KIDNEY_R: 1 g
  KIDNEY_TOTAL: 2 g
  LIVER: 11.2 g
  A/G: 0.8
  ALP: 2293.8 IU/L
  ALT: 42.6 IU/L
  AST: 72.8 IU/L
  BUN: 17.6 mg/dL
  CRE: 0.2 mg/dL
  Ca: 10.9 mg/dL
  Cl: 104.8 meq/L
  DBIL: 0.016 mg/dL
  GLC: 170.8 mg/dL
  IP: 7.8 mg/dL
  K: 3.9 meq/L
  LDH: 56.2 IU/L
  Na: 142.6 meq/L
  PL: 126.2 mg/dL
  RALB: 2.6 g/dL
  TBIL: 0.05 mg/dL
  TC: 67.8 mg/dL
  TG: 62.6 mg/dL
  TP: 5.6 g/dL
  gamma-GTP: 1 IU/L
[6]
  TERMINAL_BW: 246 g
  APTT: 18 s
  Bas: 0%
  Eos: 0.8%
  Fbg: 297 mg/dL
  Hb: 13.6 g/dL
  Ht: 40.3%
  Lym: 81%
  MCH: 21 pg
  MCHC: 33.7%
  MCV: 62.3 fL
  Mono: 2.2%
  Neu: 15.4%
  PT: 15.5 s
  Plat: 109.3 x10_4/uL
  RBC: 647.2 x10_4/ul
  Ret: 4.6%
  WBC: 79.7 x10_2/uL
  KIDNEY_L: 1.1 g
  KIDNEY_R: 1.1 g
  KIDNEY_TOTAL: 2.2 g
  LIVER: 15.2 g
  A/G: 0.8
  ALP: 2036.8 IU/L
  ALT: 34 IU/L
  AST: 61.4 IU/L
  BUN: 18 mg/dL
  CRE: 0.2 mg/dL
  Ca: 11 mg/dL
  Cl: 104.6 meq/L
  DBIL: 0.018 mg/dL
  GLC: 186 mg/dL
  IP: 7.9 mg/dL
  K: 4.4 meq/L
  LDH: 62 IU/L
  Na: 141.6 meq/L
  PL: 138.2 mg/dL
  RALB: 2.6 g/dL
  TBIL: 0.046 mg/dL
  TC: 76.8 mg/dL
  TG: 55 mg/dL
  TP: 5.8 g/dL
  gamma-GTP: 0.8 IU/L
[7]
  TERMINAL_BW: 300.3 g
  APTT: 18.5 s
  Bas: 0.4%
  Eos: 1%
  Fbg: 300.4 mg/dL
  Hb: 13.7 g/dL
  Ht: 40.2%
  Lym: 78%
  MCH: 20 pg
  MCHC: 34.2%
  MCV: 58.5 fL
  Mono: 3%
  Neu: 16.6%
  PT: 16.2 s
  Plat: 124.9 x10_4/uL
  RBC: 686.4 x10_4/ul
  Ret: 5.2%
  WBC: 128.4 x10_2/uL
  KIDNEY_L: 1.3 g
  KIDNEY_R: 1.4 g
  KIDNEY_TOTAL: 2.7 g
  LIVER: 18.1 g
  A/G: 0.8
  ALP: 2097.8 IU/L
  ALT: 39.6 IU/L
  AST: 66 IU/L
  BUN: 17.2 mg/dL
  CRE: 0.2 mg/dL
  Ca: 10.7 mg/dL
  Cl: 102.8 meq/L
  DBIL: 0.018 mg/dL
  GLC: 193 mg/dL
  IP: 7.6 mg/dL
  K: 4 meq/L
  LDH: 94.4 IU/L
  Na: 141.4 meq/L
  PL: 141.4 mg/dL
  RALB: 2.7 g/dL
  TBIL: 0.044 mg/dL
  TC: 75 mg/dL
  TG: 62.4 mg/dL
  TP: 5.9 g/dL
  gamma-GTP: 0.8 IU/L
[8]
  TERMINAL_BW: 378.6 g
  APTT: 22.4 s
  Bas: 0.4%
  Eos: 0.8%
  Fbg: 290.2 mg/dL
  Hb: 14.7 g/dL
  Ht: 42.3%
  Lym: 79.6%
  MCH: 18.5 pg
  MCHC: 34.8%
  MCV: 53.1 fL
  Mono: 2.4%
  Neu: 16.8%
  PT: 15.7 s
  Plat: 109.6 x10_4/uL
  RBC: 796.6 x10_4/ul
  Ret: 2.9%
  WBC: 135.7 x10_2/uL
  KIDNEY_L: 1.6 g
  KIDNEY_R: 1.5 g
  KIDNEY_TOTAL: 3.2 g
  LIVER: 21.7 g
  A/G: 0.8
  ALP: 1321.8 IU/L
  ALT: 33.2 IU/L
  AST: 58.8 IU/L
  BUN: 17.8 mg/dL
  CRE: 0.2 mg/dL
  Ca: 10.9 mg/dL
  Cl: 103.6 meq/L
  DBIL: 0.012 mg/dL
  GLC: 193.8 mg/dL
  IP: 7 mg/dL
  K: 4.5 meq/L
  LDH: 81.8 IU/L
  Na: 141.8 meq/L
  PL: 117.6 mg/dL
  RALB: 2.9 g/dL
  TBIL: 0.038 mg/dL
  TC: 64 mg/dL
  TG: 41.6 mg/dL
  TP: 6.4 g/dL
  gamma-GTP: 1 IU/L
